Assay results as given in PubChem BioAssay (NCI).
“And” between values parts separate entries of the source, which are not always exact repeats. Equal entries are not always repeated.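 Tested at 5 concentrations; 48 h exposure; 96-well plates; endpoints linearly interpolated, else capped at highest concentration. GI50: concentration for 50% inhibition of growth. TGI is the concentration that stops growth completely.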

Each compound was assayed on MDA-MB-468 breast (assay: inhibition of tumour cell growth, NCI panel, 48 h).
For `O=C1C(Cl)=C(NCCCN(CCCNC2=C(Cl)C(=O)c3ccccc3C2=O)C2=C(Cl)C(=O)c3ccccc3C2=O)C(=O)c2ccccc21`, the GI50 was 1210 nM and the TGI was 2870 nM.
Compound `O=C1NC(=NCCc2ccc(Br)cc2)S/C1=C\c1ccc2ncccc2c1` has a GI50 of over 16500 nM and a TGI of over 25000 nM.
In the case of `O=C1/C(=C/c2ccc([N+](=O)[O-])o2)Oc2ccc(Cl)cc21`, the GI50 was 1550 nM and the TGI was 3450 nM.
In the case of `COc1ccc2c(c1)-c1c(c3cc(OC)ccc3n(CCN(C)C)c1=O)C2=O`, the GI50 was 1750 nM and the TGI was 9190 nM.
Compound `CN(C)c1ccc2[nH]c3c(C(N)=O)cc(=O)c(=O)c=3oc2c1` has a GI50 of 2020 nM and a TGI of 5520 nM.
With `C[C@]12CCC(=O)C[C@@H]1CC[C@@H]1[C@@H]2CC[C@]2(C)[C@@H](OC(=O)N(CCCl)N=O)CC[C@@H]12` the GI50 was 1060 nM and the TGI was 4720 nM.
Work on `Fc1ccc(Nc2nc(Nc3ccc(-c4nc5ccccc5[nH]4)cc3)c3cn[nH]c3n2)cc1` yielded a GI50 of 1910 nM and a TGI of 3740 nM.
`Cc1c(C(N)=O)sc2nc(C)n(/N=c3\scc(-c4ccccc4)n3Cc3ccccc3)c(=O)c12` showed a GI50 of 2650 nM and a TGI of over 100000 nM.
`C=C(C)C(=O)Nc1ccc(-c2c(-c3ccc(Oc4nccc(C)n4)c(F)c3)c3c(N)ncnc3n2C)cc1` was tested, and the GI50 was 1830 nM and the TGI was 6830 nM.
Compound `O=C1/C(=C/c2ccc(C(F)(F)F)cc2)COc2ccc(O)c(O)c21` has a GI50 of 1530 nM and a TGI of 2990 nM.
With `O=C(CI)Nc1ccc(Br)cc1` the GI50 was 1830 nM and the TGI was 3740 nM.
For `CNC(=O)c1cc(Oc2ccc(NC(=O)Nc3cc(C(C)(C)C)nn3-c3ccc4ncccc4c3)c(F)c2)ccn1`, the GI50 was 1950 nM and 2430 nM and the TGI was 4530 nM and 5190 nM.
`CCCCCCCCN=C(NCCCCCCCC)SCc1cccc2ccccc12` was tested, and the GI50 was 1410 nM and the TGI was 2810 nM.
Compound `COc1ccc(-c2[nH]ncc2Nc2cc(OC)c(OC)c(OC)c2)cc1` has a GI50 of 435 nM and a TGI of 52300 nM.
`COc1ccc([I+]c2ccc(OC)cc2)cc1` showed a GI50 of 256 nM and a TGI of 17900 nM.
`O=C1Cc2cc(CCN3CCNCC3)c(Cl)cc2N1` showed a GI50 of 2240 nM and a TGI of 7420 nM.
Work on `COc1cc2nc(-c3ccc(C(F)(F)F)cc3)cc(OCCCNCC3CCCO3)c2cc1OC` (centres undefined) yielded a GI50 of 8890 nM and a TGI of 23300 nM.
`COC(=O)c1cc(-c2ccc(S(C)(=O)=O)cc2)[nH]c1N/N=C/c1c(Cl)cccc1Cl` was tested, and the GI50 was 4270 nM and the TGI was over 100000 nM.
In the case of `COc1ccc2c(c1)nnc1c3cccnc3[nH]c21`, the GI50 was 66.7 nM and 55.6 nM and the TGI was 237 nM and 1100 nM.
For `C(=N\Nc1ccc2ccccc2n1)/c1ccccn1`, the GI50 was 313 nM and the TGI was 2460 nM.
For `COc1ccc(-c2c(-c3ccc(C#N)c(F)c3)nc(N3CCC(N)CC3)n(C)c2=O)cc1F`, the GI50 was 7910 nM and the TGI was 23200 nM.
`CN1CCN(c2ccc(NC3=CC(=O)c4ncncc4C3=O)cc2)CC1` gave a GI50 of 189 nM and a TGI of 416 nM.
`S=C(SSC(=S)N1CCCCC1)N1CCCCC1` was tested, and the GI50 was 16900 nM and the TGI was 69800 nM.
In the case of `CC1=C[C@@H]2c3c(c(O)c(O)c4oc5cc(O)cc(O)c5c(=O)c34)[C@@H](c3cc(O)c(O)c4oc5cc(O)cc(O)c5c(=O)c34)[C@@H]2C(C)(C)C1`, the GI50 was 3350 nM and the TGI was 16200 nM.
`CCN1C(=O)N(CC)C2C1N=C(SC)N2/N=C/C=C/c1ccccc1OC` (centres undefined) showed a GI50 of 256 nM and a TGI of 729 nM.
Compound `COc1cnccc1Nc1nc(-c2nn(Cc3c(F)cc(OCCO)cc3F)c3ccccc23)ncc1OC` has a GI50 of 2260 nM and a TGI of 10600 nM.
Compound `COc1cc(C2NC(=O)C(C#N)=C(Nc3cccc(C)c3)S2)ccc1O` (centres undefined) has a GI50 of over 100000 nM and a TGI of over 100000 nM.
In the case of `CC(=O)c1c(C)c2cnc(Nc3ccc(N4CCNCC4)cn3)nc2n(C2CCCC2)c1=O`, the GI50 was 3540 nM and the TGI was 15700 nM.
For `CCc1c(C)c2cc(-n3c(-c4ccc(OC)cc4)csc3=N)c(O)c(C)c2oc1=O`, the GI50 was 1930 nM and the TGI was 7760 nM.
`Cc1cc(N(CCNc2ccnc3cc(Cl)ccc23)Cc2ccc3c(c2)OCO3)nc(N2CCCC2)n1` showed a GI50 of 1470 nM and a TGI of 3740 nM.
Work on `CSc1nc2c(c(=O)n1C)C(c1ccccc1)C1=C(N2)/C(=C/c2ccccc2)CCC1` (centres undefined) yielded a GI50 of 2840 nM and a TGI of 29700 nM.
Work on `CCOC(=O)/C=C1/SC(=Nc2ccc(C#N)cc2)N(Cc2ccco2)C1=O` yielded a GI50 of 2970 nM and a TGI of 14200 nM.
